The text below walks through data of PMC11003480, “Promising inhibition of diabetes-related enzymes and antioxidant properties of Ptilostemon casabonae leaves extract” (Journal of Enzyme Inhibition and Medicinal Chemistry, 2023).

Assay [1] concerns the target Saccharomyces cerevisiae α-glucosidase. In words: α-Glucosidase inhibition assay (pNPG substrate). The assay is classed as biochemical. As to conditions: for α-Glucosidase Mode of inhibition: Lineweaver-Burk plot; for equilibrium constant for binding with the enzyme-substrate complex (KIS): from intercepts (1/Vmax) versus inhibitor concentration; for equilibrium constant for binding with the free enzyme (KI): from slope (Km/Vmax) versus inhibitor concentration. How it is done: The concentrations of extract required to give 50% inhibition of enzyme activity (IC50) were determined. […] The Lineweaver-Burk double reciprocal plot was used to determine the mode of α-glucosidase inhibition by performing assays at different concentrations of substrate and extract or compound. Grafit 7 (Erithacus, East Grinstead, UK) was used as data analysis software. α-Glucosidase inhibitory activity was analysed following the method described by Delogu et al.[15]. […] It was first incubated for 15 min at 37 °C. Then, 20 µL of p-nitrophenyl α-D-glucopyranoside solution (pNPG, 5 mM) was added. After further 15 min of incubation at 37 °C, the reaction was stopped by adding 50 μL of 0.2 M sodium carbonate solution. α-Glucosidase activity was determined with a 96-well microplate reader by measuring the absorbance at 405 nm. The mode of inhibition was determined, and the equilibrium constant for binding with the enzyme–substrate complex (KIS) was obtained from the vertical intercepts plotted versus inhibitor concentration.

The nature of assay [2]: ABTS radical scavenging activity. As to conditions: 50% reduction of absorbance at 734 nm after 1 min. How it is done: Briefly, the reaction between the reduced ABTS (7 mM) with potassium persulfate (2.45 mM) in an aqueous solution at room temperature for 24 h, was performed to produce free radical ABTS^.+. Then, different concentrations of extract (10 μL) were added to 1 ml of ABTS^.+, and the absorbance at 734 nm was recorded after 1 min. The activity was expressed as the concentration of sample necessary to give a 50% reduction in the original absorbance (EC50).

A short description of assay [3]: Ferric reducing antioxidant power assay (FRAP). As to conditions: ferrous equivalents; 4 min, absorbance 593 nm. How it is done: Ferric reducing antioxidant power assay (FRAP) was conducted as previously described, with slight modifications. An amount of 10 µL of the extract was mixed with 2 ml of the TPTZ–ferric solution and than incubated for 4 min at room temperature in the dark. The absorbance was read at 593 nm and the result was expressed as ferrous equivalents (FE; mg Fe^2+ equivalents/mL solution). Ascorbic acid was used as reference compound.

For assay [4], the system named is Saccharomyces cerevisiae α-glucosidase. Also noted: method as in PMID 25805337. As to conditions: cited from earlier work.

As for `C[C@@H]1O[C@@H](OC[C@H]2O[C@@H](Oc3c(-c4ccc(O)c(O)c4)oc4cc(O)cc(O)c4c3=O)[C@H](O)[C@@H](O)[C@@H]2O)[C@H](O)[C@H](O)[C@H]1O` [Rutin (4), Quercetin 3-O-rutinoside (Rutin)], in assay [1], the “α-Glucosidase IC50” value came to 20.54 ± 4.45 µg/mL, the “α-Glucosidase Mode of inhibition” value was “Mixed”, the “equilibrium constant for binding with the enzyme-substrate complex (KIS)” value (“equilibrium constant for binding … (KIS)” below) came to 80.2 µg/mL and the “equilibrium constant for binding with the free enzyme (KI)” value is given as 9.3 µg/mL. The “α-Glucosidase Mode of inhibition” value in assay [1] (listed as rutin) is given as “mixed-type inhibition”.
For the compound `Cc1c(C)c2c(c(C)c1O)CCC(C)(C(=O)O)O2` (stereo not shown) [Trolox, 6-hydroxy-2,5,7,8-tetramethylchromane-2-carboxylic acid], in assay [2], the “ABTS EC50” value was found to be 3.4 ± 0.3 µg/mL.
Turning to `O=C(/C=C/c1ccc(O)c(O)c1)O[C@@H]1C[C@](OC(=O)/C=C/c2ccc(O)c(O)c2)(C(=O)O)C[C@@H](O)[C@H]1O` [1,5-Dicaffeoylquinic acid (9), 1,5-Dicaffeoylquinic acid], in assay [1], the “α-Glucosidase IC50” value stood at 36.64 ± 0.07 µg/mL, the “α-Glucosidase Mode of inhibition” value is recorded as “Uncompetitive” and the “equilibrium constant for binding … (KIS)” value is on record as 69.4 µg/mL.
For `O=C1O[C@H]([C@@H](O)CO)C(O)=C1O` [Ascorbic acid], the FRAP in assay [3] is 1.81 ± 0.13 mg FE/mL.
For the compound `O=c1cc(-c2ccc(O)cc2)oc2cc(O)cc(O)c12` [Apigenin (23), Apigenin], in assay [1], the “α-Glucosidase IC50” value is recorded as 3.88 ± 1.48 µg/mL, the “α-Glucosidase Mode of inhibition” value is “Mixed”, the “equilibrium constant for binding … (KIS)” value was 19.6 µg/mL and the “equilibrium constant for binding with the free enzyme (KI)” value is 6.5 µg/mL. Also, the “α-Glucosidase Mode of inhibition” value in assay [1] (listed as apigenin) is reported as “mixed-type inhibition”.
Take `O=C(/C=C/c1ccc(O)c(O)c1)O[C@@H]1C[C@](O)(C(=O)O)C[C@@H](O)[C@H]1O` [Chlorogenic acid (1), 5-O-Caffeoylquinic acid (Chlorogenic acid)]: in assay [1], the “α-Glucosidase IC50” value is given as over 100 µg/mL and the “α-glucosidase inhibitory activity (in words)” value is on record as “no inhibitory activity”.
In the case of `O=C(/C=C/c1ccc(O)c(O)c1)O[C@@H]1CC(O)(C(=O)O)C[C@@H](OC(=O)/C=C/c2ccc(O)c(O)c2)C1O` (stereo partly shown) [3,5-dicaffeoylquinic acid, 3,5-Dicaffeoylquinic acid], the “α-glucosidase inhibition (in words)” value in assay [4] is reported as “able to inhibit this enzyme”.
As for `O=C(/C=C/c1ccc(O)c(O)c1)O[C@H]1[C@H](O)C[C@](O)(C(=O)O)C[C@H]1OC(=O)/C=C/c1ccc(O)c(O)c1` [4,5-dicaffeoylquinic acid], the “α-glucosidase inhibition (in words)” value in assay [4] is listed as “able to inhibit this enzyme”.
